Data from patent US8129417B2, “Substituted octahydrocyclopenta[C]pyrrol-4-amines as calcium channel blockers” (Abbott Laboratories, priority 2008, dated 2012).
Like-named read-outs stand apart in the source and are kept apart here.

Target: human Cav2.2 (Homo sapiens, UniProt Q00975)
Assay: Assessment of calcium channel activity using FLIPR (Ca2+ influx in IMR32 cells)
Assay type: cell-based
Details: for IC50: 2 μM nifedipine, depolarized with 80 mM KCl; for inhibition at 10 µM: IMR-32, @ 10 μM, read-out: percent inhibition
Procedure, shortened: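 IMR32 neuroblastoma cells seeded at 1-1.2×10^5 cells/well and grown 48 h at 37 °C before FLIPR Ca2+ influx read. Percent inhibition at each concentration vs no-inhibitor activity; IC50 by non-linear sigmoidal dose-response fit.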

[1] = 60 minute pre-incubation with compound
[2] = 3 minute pre-incubation with compound (*)

Chain of human Cav2.2 (Q00975 whole entry): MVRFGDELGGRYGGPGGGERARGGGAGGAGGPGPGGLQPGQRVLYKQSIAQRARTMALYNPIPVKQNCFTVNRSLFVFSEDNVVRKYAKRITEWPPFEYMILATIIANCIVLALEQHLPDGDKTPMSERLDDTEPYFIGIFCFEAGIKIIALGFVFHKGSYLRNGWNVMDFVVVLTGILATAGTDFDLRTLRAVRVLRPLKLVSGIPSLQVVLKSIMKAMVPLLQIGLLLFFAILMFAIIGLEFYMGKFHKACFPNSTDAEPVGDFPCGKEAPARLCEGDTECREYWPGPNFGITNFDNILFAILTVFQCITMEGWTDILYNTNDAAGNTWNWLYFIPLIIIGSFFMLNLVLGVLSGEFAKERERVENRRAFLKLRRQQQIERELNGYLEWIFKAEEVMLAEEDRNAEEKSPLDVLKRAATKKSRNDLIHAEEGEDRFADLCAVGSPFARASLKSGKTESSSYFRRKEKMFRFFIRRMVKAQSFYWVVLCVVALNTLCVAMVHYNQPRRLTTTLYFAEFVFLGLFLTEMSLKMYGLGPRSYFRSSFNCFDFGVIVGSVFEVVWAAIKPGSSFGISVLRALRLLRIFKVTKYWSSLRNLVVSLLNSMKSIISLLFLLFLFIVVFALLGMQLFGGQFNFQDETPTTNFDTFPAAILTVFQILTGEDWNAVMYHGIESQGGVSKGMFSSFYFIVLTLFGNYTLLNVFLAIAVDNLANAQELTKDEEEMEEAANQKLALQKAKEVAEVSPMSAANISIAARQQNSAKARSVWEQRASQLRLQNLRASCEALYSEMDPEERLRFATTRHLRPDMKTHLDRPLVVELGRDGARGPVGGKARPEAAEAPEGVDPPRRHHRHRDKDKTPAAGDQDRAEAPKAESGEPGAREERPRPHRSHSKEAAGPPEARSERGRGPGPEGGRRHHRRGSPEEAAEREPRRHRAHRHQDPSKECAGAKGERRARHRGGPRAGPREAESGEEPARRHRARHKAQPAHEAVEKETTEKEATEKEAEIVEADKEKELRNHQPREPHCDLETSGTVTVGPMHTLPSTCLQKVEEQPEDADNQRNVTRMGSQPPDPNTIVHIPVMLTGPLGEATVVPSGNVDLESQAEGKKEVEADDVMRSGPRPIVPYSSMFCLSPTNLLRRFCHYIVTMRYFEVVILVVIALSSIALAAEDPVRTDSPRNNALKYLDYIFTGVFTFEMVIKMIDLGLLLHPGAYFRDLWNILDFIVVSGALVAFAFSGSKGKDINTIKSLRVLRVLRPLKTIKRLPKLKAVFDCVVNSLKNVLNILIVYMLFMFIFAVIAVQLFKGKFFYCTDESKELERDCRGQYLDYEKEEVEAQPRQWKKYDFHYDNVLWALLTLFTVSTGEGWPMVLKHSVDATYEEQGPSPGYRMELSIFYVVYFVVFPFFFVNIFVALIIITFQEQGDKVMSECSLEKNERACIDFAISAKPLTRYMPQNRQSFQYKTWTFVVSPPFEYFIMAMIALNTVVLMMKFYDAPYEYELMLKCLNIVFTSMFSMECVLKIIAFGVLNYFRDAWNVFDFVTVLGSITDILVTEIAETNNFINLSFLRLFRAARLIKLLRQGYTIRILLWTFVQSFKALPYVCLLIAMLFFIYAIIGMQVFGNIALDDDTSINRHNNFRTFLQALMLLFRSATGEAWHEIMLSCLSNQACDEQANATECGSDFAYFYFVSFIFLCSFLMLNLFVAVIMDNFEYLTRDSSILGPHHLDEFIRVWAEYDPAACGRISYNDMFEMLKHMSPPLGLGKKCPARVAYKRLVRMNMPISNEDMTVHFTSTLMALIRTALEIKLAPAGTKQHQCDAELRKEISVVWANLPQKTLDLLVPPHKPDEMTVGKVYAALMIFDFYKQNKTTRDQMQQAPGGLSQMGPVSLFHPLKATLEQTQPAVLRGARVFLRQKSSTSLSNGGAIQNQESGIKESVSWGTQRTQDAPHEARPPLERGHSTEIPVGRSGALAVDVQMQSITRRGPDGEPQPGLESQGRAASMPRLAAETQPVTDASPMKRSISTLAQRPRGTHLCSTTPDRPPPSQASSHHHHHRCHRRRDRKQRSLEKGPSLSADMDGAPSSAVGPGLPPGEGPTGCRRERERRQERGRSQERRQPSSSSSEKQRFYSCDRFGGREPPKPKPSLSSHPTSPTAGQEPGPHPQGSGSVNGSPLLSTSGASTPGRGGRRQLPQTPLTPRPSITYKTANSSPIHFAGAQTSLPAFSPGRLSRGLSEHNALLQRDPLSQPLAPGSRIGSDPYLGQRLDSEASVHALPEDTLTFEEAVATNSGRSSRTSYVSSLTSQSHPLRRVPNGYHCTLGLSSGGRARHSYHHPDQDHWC
Chain of human Cav2.2 (P54289 25-946 partner limits assumed): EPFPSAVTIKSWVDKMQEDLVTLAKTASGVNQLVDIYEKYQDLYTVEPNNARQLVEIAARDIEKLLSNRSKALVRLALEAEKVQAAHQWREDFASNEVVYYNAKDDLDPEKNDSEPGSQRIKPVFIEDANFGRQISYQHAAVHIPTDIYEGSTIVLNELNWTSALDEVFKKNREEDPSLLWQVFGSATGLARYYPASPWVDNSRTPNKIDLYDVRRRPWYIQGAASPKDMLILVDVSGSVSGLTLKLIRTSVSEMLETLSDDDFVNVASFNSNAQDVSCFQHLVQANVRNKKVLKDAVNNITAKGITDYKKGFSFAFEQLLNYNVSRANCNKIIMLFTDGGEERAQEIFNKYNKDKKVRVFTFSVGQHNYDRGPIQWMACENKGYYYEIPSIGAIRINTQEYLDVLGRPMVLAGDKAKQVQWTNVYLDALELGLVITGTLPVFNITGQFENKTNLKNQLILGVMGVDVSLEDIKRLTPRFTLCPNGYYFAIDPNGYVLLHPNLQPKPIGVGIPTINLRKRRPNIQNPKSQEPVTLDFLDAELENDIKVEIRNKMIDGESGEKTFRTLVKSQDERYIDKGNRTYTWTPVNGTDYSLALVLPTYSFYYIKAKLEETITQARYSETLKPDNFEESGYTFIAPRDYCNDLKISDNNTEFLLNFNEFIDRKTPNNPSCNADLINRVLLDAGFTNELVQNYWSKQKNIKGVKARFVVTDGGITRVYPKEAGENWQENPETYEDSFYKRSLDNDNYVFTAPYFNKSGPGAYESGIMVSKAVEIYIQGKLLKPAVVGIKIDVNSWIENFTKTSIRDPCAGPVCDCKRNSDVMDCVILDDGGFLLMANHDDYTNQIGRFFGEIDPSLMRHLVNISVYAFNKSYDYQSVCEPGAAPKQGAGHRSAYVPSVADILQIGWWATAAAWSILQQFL
Chain of human Cav2.2 (P54289 947-1103 partner limits assumed): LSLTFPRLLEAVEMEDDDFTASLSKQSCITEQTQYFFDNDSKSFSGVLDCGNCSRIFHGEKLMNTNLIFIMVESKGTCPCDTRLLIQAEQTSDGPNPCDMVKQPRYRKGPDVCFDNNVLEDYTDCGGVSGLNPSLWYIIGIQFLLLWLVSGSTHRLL
Chain of human Cav2.2 (P54284 whole entry partner): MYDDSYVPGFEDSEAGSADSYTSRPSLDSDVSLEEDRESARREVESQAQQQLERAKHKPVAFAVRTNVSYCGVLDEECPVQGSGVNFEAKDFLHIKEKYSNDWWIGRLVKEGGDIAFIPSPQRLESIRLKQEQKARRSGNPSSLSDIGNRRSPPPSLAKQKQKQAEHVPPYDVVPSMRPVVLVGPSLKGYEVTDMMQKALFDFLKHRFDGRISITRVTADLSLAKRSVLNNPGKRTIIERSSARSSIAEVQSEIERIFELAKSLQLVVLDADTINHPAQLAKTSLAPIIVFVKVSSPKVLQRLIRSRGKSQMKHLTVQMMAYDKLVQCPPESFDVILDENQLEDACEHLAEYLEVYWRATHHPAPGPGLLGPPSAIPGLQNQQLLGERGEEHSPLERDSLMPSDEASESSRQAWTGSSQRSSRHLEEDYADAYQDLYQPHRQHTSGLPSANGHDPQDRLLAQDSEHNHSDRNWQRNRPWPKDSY

Row | IC50 [1] [µM] | Structure (SMILES) | other results
1 | 0.7 | CC(C)C[C@@H](C(=O)N[C@H]1CC[C@@H]2CN(S(=O)(=O)c3cccc(C(F)(F)F)c3)C[C@@H]21)N(C)C(=O)OC(C)(C)C [Example 322, tert-butyl methyl((S)-4-methyl-1-oxo-1-((3aR,4S,6aS)-2-(3-(trifluoromethyl)phenylsulfonyl)octahydrocyclopenta[c]pyrrol-4-ylamino)pentan-2-yl)carbamate] | –
2 | 2.01 | CC(C)(C)OC(=O)N[C@H](C(=O)N[C@H]1CC[C@@H]2CN(S(=O)(=O)c3ccc(C(F)(F)F)cc3)C[C@@H]21)C(C)(C)C [Example 341, tert-butyl(S)-3,3-dimethyl-1-oxo-1-((3aR,4S,6aS)-2-(4-(trifluoromethyl)phenylsulfonyl)octahydrocyclopenta[c]pyrrol-4-ylamino)butan-2-ylcarbamate] | –
3 | 1.14 | CCC[C@@H](C(=O)N[C@H]1CC[C@@H]2CN(S(=O)(=O)c3ccc(C(F)(F)F)cc3)C[C@@H]21)N(C)C(=O)OC(C)(C)C [Example 259, tert-butyl methyl((S)-1-oxo-1-((3aR,4S,6aS)-2-(4-(trifluoromethyl)phenylsulfonyl)octahydrocyclopenta[c]pyrrol-4-ylamino)pentan-2-yl)carbamate] | –
4 | 5.43 | CN[C@@H](CC(C)C)C(=O)N[C@@H]1CC[C@H]2CN(S(=O)(=O)c3ccc(F)c(C(F)(F)F)c3)C[C@H]21 [Example 407, N^1-((3aS,4R,6aR)-2-{[4-fluoro-3-(trifluoromethyl)phenyl]sulfonyl}octahydrocyclopenta[c]pyrrol-4-yl)-N^2-methyl-L-leucinamide] | –
5 | 1.08 | CCCC[C@H](NC)C(=O)N[C@H]1CC[C@@H]2CN(S(=O)(=O)c3cccc(C(F)(F)F)c3)C[C@@H]21 [Example 393, N^2-methyl-N^1-((3aR,4S,6aS)-2-{[3-(trifluoromethyl)phenyl]sulfonyl}octahydrocyclopenta[c]pyrrol-4-yl)-L-norleucinamide] | –
6 | 7.58 | CN[C@H](C(=O)N[C@@H]1CC[C@H]2CN(Cc3cccc(C(F)(F)F)c3)C[C@H]21)C(C)C [Example 373, N^2-methyl-N^1-{(3aS,4R,6aR)-2-[3-(trifluoromethyl)benzyl]octahydrocyclopenta[c]pyrrol-4-yl}-L-valinamide] | –
7 | 4.96 | CN[C@@H](CC(C)C)C(=O)N[C@@H]1CC[C@H]2CN(S(=O)(=O)c3cc(F)cc(F)c3)C[C@H]21 [Example 446, N^1-{(3aS,4R,6aR)-2-[(3,5-difluorophenyl)sulfonyl]octahydrocyclopenta[c]pyrrol-4-yl}-N^2-methyl-L-leucinamide] | –
8 | 6.45 | CN[C@@H](CC1CCCCC1)C(=O)N[C@H]1CC[C@@H]2CN(S(=O)(=O)c3ccc(C(F)(F)F)cc3)C[C@@H]21 [Example 427, 3-cyclohexyl-N^2-methyl-N^1-((3aR,4S,6aS)-2-{[4-(trifluoromethyl)phenyl]sulfonyl}octahydrocyclopenta[c]pyrrol-4-yl)-L-alaninamide] | –
9 | 4.45 | CC(C)C[C@@H](NS(C)(=O)=O)C(=O)N[C@H]1CC[C@@H]2CN(Cc3cccc(C(F)(F)F)c3)C[C@@H]21 [Example 517, N^2-(methylsulfonyl)-N^1-{(3aR,4S,6aS)-2-[3-(trifluoromethyl)benzyl]octahydrocyclopenta[c]pyrrol-4-yl}-D-leucinamide] | –

More lines, now with the values behind:

Row | Structure (SMILES) | IC50 [1] [µM] | other results
10 | CC(C)(C)C[C@H](NC(=O)OC(C)(C)C)C(=O)N[C@H]1CC[C@@H]2CN(c3cnc(S(C)(=O)=O)nc3)C[C@@H]21 [Example 265, tert-butyl(S)-4,4-dimethyl-1-((3aR,4S,6aS)-2-(2-(methylsulfonyl)pyrimidin-5-yl)octahydrocyclopenta[c]pyrrol-4-ylamino)-1-oxopentan-2-ylcarbamate] | 2.62 | –
11 | CN(C(=O)OC(C)(C)C)[C@@H](CC(C)(C)C)C(=O)N[C@H]1CC[C@@H]2CN(Cc3ccccc3)C[C@@H]21 [Example 247, tert-butyl(S)-1-((3aR,4S,6aS)-2-benzyloctahydrocyclopenta[c]pyrrol-4-ylamino)-4,4-dimethyl-1-oxopentan-2-yl(methyl)carbamate] | 3.62 | –
12 | O=C(N[C@H]1CC[C@H]2CN(Cc3cccc(C(F)(F)F)c3)C[C@H]21)C1CCCCC1 (relative stereo) [Example 127, N-{(3aS*,4S*,6aR*)-2-[3-(trifluoromethyl)benzyl]octahydrocyclopenta[c]pyrrol-4-yl}cyclohexanecarboxamide] | 1.5 | –
13 | CC(C)C(C(=O)N[C@H]1CC[C@@H]2CN(CCCc3cccc(F)c3)C[C@@H]21)c1ccccc1 (stereo partly drawn) [Example 112, N-{(3aR,4S,6aS)-2-[3-(3-fluorophenyl)propyl]octahydrocyclopenta[c]pyrrol-4-yl}-3-methyl-2-phenylbutanamide] | – | IC50 [2]: 2.8 µM
14 | CCN[C@H]1CC[C@@H]2CN(S(=O)(=O)c3ccc(C(F)(F)F)cc3)C[C@@H]21 [Example 288, (3aR,4S,6aS)—N-ethyl-2-{[4-(trifluoromethyl)phenyl]sulfonyl}octahydrocyclopenta[c]pyrrol-4-amine] | 10.4 | –
15 | CCC[C@@H](C(=O)N[C@@H]1CC[C@@H]2CN(Cc3ccccc3)C[C@@H]21)N(C)C(=O)OC(C)(C)C [Example 240, tert-butyl(S)-1-((3aR,4R,6aS)-2-benzyloctahydrocyclopenta[c]pyrrol-4-ylamino)-1-oxopentan-2-yl(methyl)carbamate] | 2.67 | –
16 | O=S(=O)(N[C@@H]1CC[C@@H]2CN(Cc3cccc(C(F)(F)F)c3)C[C@@H]21)c1cccc(C(F)(F)F)c1 [Example 188, 3-(trifluoromethyl)-N-{(3aR,4R,6aS)-2-[3-(trifluoromethyl)benzyl]octahydrocyclopenta[c]pyrrol-4-yl}benzenesulfonamide] | 0.8 | –
17 | CC(C)(C)OC(=O)N[C@H](C(=O)N[C@@H]1CC[C@H]2CN(Cc3ccccc3)C[C@H]21)C(C)(C)C [Example 234, tert-butyl(S)-1-((3aS,4R,6aR)-2-benzyloctahydrocyclopenta[c]pyrrol-4-ylamino)-3,3-dimethyl-1-oxobutan-2-ylcarbamate] | 7.4 | –
18 | O=C(N[C@H]1CC[C@H]2CN(S(=O)(=O)CCc3cccc4ccccc34)C[C@H]21)C(C1CCCCC1)C1CCCCC1 [Example 207, 2,2-dicyclohexyl-N-((3aS,4S,6aR)-2-{[2-(1-naphthyl)ethyl]sulfonyl}octahydrocyclopenta[c]pyrrol-4-yl)acetamide] | > 100 | –
19 | Cc1cccc(CCCN2C[C@H]3CC[C@H](NC(=O)C(c4ccccc4)C(C)C)[C@H]3C2)c1 (stereo partly drawn) [Example 110, 3-methyl-N-{(3aR,4S,6aS)-2-[3-(3-methylphenyl)propyl]octahydrocyclopenta[c]pyrrol-4-yl}-2-phenylbutanamide] | – | IC50 [2]: 2 µM
20 | CC(C)Cc1ccc([C@H](C)C(=O)N[C@H]2CC[C@@H]3CN(Cc4ccccc4)C[C@@H]32)cc1 [Example 39, (2S)—N-[(3aR,4S,6aS)-2-benzyloctahydrocyclopenta[c]pyrrol-4-yl]-2-(4-isobutylphenyl)propanamide] | – | inhibition at 10 µM (3 minute pre-incubation (*)): 92%
21 | O=C(N[C@@H]1CC[C@@H]2CN(Cc3ccccc3)C[C@@H]21)C(c1ccccc1)C1CCCCC1 (relative stereo) [Example 3, N-[(3aR*,4R*,6aS*)-2-benzyloctahydrocyclopenta[c]pyrrol-4-yl]-2-cyclohexyl-2-phenylacetamide] | – | inhibition at 10 µM (60 minute pre-incubation): 91%
